# Results taken from patent US20060057671A1 (priority 2004, published 2006).
# Read-outs that look alike come from different tables or passages of the source.
# How the values were obtained:
# [1] = type: physicochemical
# [2] = type: physicochemical; remark: listed apart in the source
substance,measurement,setting,value
poly-L-lysine,absorbance plateau,[1]; pH 7,approximately 0.22
same,absorbance plateau,[1]; pH 11,approximately 0.12
same,CD minimum,[2]; pH 7,approximately 204 nm
same,CD minimum,[2]; pH 11,approximately 216 nm
